Experimental data published in US12116358B2, “Substituted indoles and methods of use thereof” (EPIZYME, INC., priority 2018, dated 2024).
Like-named read-outs stand apart in the source and are kept apart here.

Legend:
[1] = test system: H3K36me3 in A549 cells; assay: In-Cell Western (ICW) assay of SETD2 inhibitors (A549 assay); format: cell-based, human; settings: A549 cells, read-out: SETD2 A549
Procedure, shortened: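 H3K36me3 In-Cell Western: cells exposed to compound for 3 days at 4,000 cells/well, 37° C. DRAQ5 (1:1000) marked cell number, with 700/800-channel Licor read-out.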

[2] = target: T1, SETD2(1434-1711) (Homo sapiens, UniProt Q9BYW2); assay: SETD2 (1434-1711) assay; format: biochemical; settings: read-out: SETD2 (1434-1711)
T1 construct: SETD2 (1434-1711) Assay; catalogue N/A
T1 sequence (Q9BYW2 1434-1711): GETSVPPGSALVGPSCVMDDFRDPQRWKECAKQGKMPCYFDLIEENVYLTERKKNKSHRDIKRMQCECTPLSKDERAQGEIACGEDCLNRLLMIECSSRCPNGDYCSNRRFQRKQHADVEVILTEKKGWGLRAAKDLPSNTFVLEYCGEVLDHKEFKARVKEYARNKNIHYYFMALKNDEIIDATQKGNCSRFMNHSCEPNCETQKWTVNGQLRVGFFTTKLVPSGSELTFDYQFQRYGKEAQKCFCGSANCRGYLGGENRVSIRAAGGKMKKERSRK

SMILES	IC50 ([1]; Homo sapiens)	IC50 [2]	IC50 [1]
Cc1ccc(F)c2cc(C(=O)N[C@@H]3CCC[C@@H](N4CC5(CNC(=O)C5)C4)C3)[nH]c12 [compound 898]	> 2000 nM	4300 nM	–
Cc1ccc(F)c2cc(C(=O)N[C@@H]3CCC[C@@H](c4cccnc4)C3)[nH]c12 [compound 902]	> 2000 nM	4200 nM	–
Cc1ccc(F)c2cc(C(=O)N[C@@H]3CCC[C@H](c4cccnc4)C3)[nH]c12 [compound 903]	300 nM	40 nM	–
Cc1ccc(F)c2cc(C(=O)N[C@H]3CCC[C@H](c4cccnc4)C3)[nH]c12 [compound 904]	> 2000 nM	8100 nM	–
Cc1ccc(F)c2cc(C(=O)N[C@H]3CCC[C@@H](c4cccnc4)C3)[nH]c12 [compound 905]	> 2000 nM	2900 nM	–
CC(=O)N1CCN([C@H]2CCC[C@@H](NC(=O)c3cc4c(F)ccc(C)c4[nH]3)C2)CC1C (stereo partly drawn) [compound 906]	10 nM	10 nM	–
CC(=O)N1CCN([C@@H]2CCC[C@@H](NC(=O)c3cc4c(F)ccc(C)c4[nH]3)C2)CC1C (stereo partly drawn) [compound 907]	1700 nM	900 nM	–
Cc1ccc(F)c2cc(C(=O)N[C@@H]3CCC[C@H](N4CCC(N(C)C(=O)CN(C)C)C4)C3)[nH]c12 (stereo partly drawn) [compound 908]	600 nM	4 nM	–
Cc1ccc(F)c2cc(C(=O)N[C@@H]3CCC[C@@H](N4CCC(N(C)C(=O)CN(C)C)C4)C3)[nH]c12 (stereo partly drawn) [compound 909]	> 2000 nM	4700 nM	–
Cc1ccc(F)c2cc(C(=O)N[C@@H]3CCC[C@H](N4CCC(N5CCCC5=O)C4)C3)[nH]c12 (stereo partly drawn) [compound 910]	100 nM	30 nM	–
Cc1ccc(F)c2cc(C(=O)N[C@@H]3CCC[C@@H](N4CCC(N5CCCC5=O)C4)C3)[nH]c12 (stereo partly drawn) [compound 911]	> 2000 nM	1000 nM	–
Cc1ccc(F)c2cc(C(=O)N[C@@H]3CCC[C@H](N4CCN(C)CC4=O)C3)[nH]c12 [compound 916]	1300 nM	1000 nM	–
Cc1ccc(F)c2cc(C(=O)N[C@@H]3CCC[C@@H](N4CCN(C)CC4=O)C3)[nH]c12 [compound 917]	> 2000 nM	> 10000 nM	–
Cc1ccc(F)c2cc(C(=O)N[C@@H]3CCC[C@H](N4CCN(C(=O)C5COC5)CC4)C3)[nH]c12 [compound 918]	100 nM	20 nM	–
Cc1ccc(F)c2cc(C(=O)N[C@@H]3CCC[C@@H](N4CCN(C(=O)C5COC5)CC4)C3)[nH]c12 [compound 919]	> 2000 nM	900 nM	–
Cc1ccc(F)c2cc(C(=O)N[C@@H]3CCC[C@H](N4CCN(C5CCOC5)CC4)C3)[nH]c12 (stereo partly drawn) [compound 924]	600 nM	100 nM	–
Cc1ccc(F)c2cc(C(=O)N[C@@H]3CCC[C@@H](N4CCN(C5CCOC5)CC4)C3)[nH]c12 (stereo partly drawn) [compound 925]	> 2000 nM	8800 nM	–
CC(=O)N1C2CCC1CN(C1CCCC(NC(=O)c3cc4c(F)ccc(C)c4[nH]3)C1)C2 (stereo not drawn) [compound 926]	–	20 nM	100 nM
CC(=O)N1C2CCC1CN(C1CCCC(NC(=O)c3cc4c(F)ccc(C)c4[nH]3)C1)C2 (stereo not drawn) [compound 927]	–	1700 nM	> 2000 nM

SMILES	IC50 ([1]; Homo sapiens)	IC50 [2]	IC50 [1]
Cc1ccc(F)c2cc(C(=O)N[C@@H]3CCC[C@H](N4CCC5(CC4)CNC(=O)C5)C3)[nH]c12 [compound 928]	900 nM	30 nM	–
Cc1ccc(F)c2cc(C(=O)N[C@@H]3CCC[C@@H](N4CCC5(CC4)CNC(=O)C5)C3)[nH]c12 [compound 929]	> 2000 nM	1700 nM	–
CC(=O)N1CCN([C@H]2CCC[C@@H](NC(=O)c3cc4c(F)ccc(C)c4[nH]3)C2)C[C@H]1C [compound 930]	10 nM	4 nM	–
CC(=O)N1CCN([C@@H]2CCC[C@@H](NC(=O)c3cc4c(F)ccc(C)c4[nH]3)C2)C[C@H]1C [compound 931]	> 2000 nM	1100 nM	–
Cc1ccc(F)c2cc(C(=O)N[C@@H]3CCC[C@@H](N4CCNC(=O)CC4)C3)[nH]c12 [compound 933]	> 2000 nM	700 nM	–
Cc1ccc(F)c2cc(C(=O)N[C@@H]3CCC[C@H](N4CCC(N(C)C(=O)CO)C4)C3)[nH]c12 (stereo partly drawn) [compound 934]	100 nM	10 nM	–
Cc1ccc(F)c2cc(C(=O)N[C@@H]3CCC[C@@H](N4CCC(N(C)C(=O)CO)C4)C3)[nH]c12 (stereo partly drawn) [compound 935]	> 2000 nM	1900 nM	–
CC(=O)N1CC2CC1CN2[C@H]1CCC[C@@H](NC(=O)c2cc3c(F)ccc(C)c3[nH]2)C1 (stereo partly drawn) [compound 936]	500 nM	100 nM	–
CC(=O)N1CC2CC1CN2C1CCCC(NC(=O)c2cc3c(F)ccc(C)c3[nH]2)C1 (stereo not drawn) [compound 937]	–	6800 nM	> 2000 nM
Cc1ccc(F)c2cc(C(=O)N[C@@H]3CCC[C@H](N4CCC5(CCC(=O)N5)CC4)C3)[nH]c12 [compound 938]	500 nM	30 nM	–
Cc1ccc(F)c2cc(C(=O)N[C@@H]3CCC[C@@H](N4CCC5(CCC(=O)N5)CC4)C3)[nH]c12 [compound 939]	> 2000 nM	500 nM	–
Cc1ccc(F)c2cc(C(=O)N[C@@H]3CCC[C@H](N4CCC5(CC4)CNC(=O)N5)C3)[nH]c12 [compound 940]	> 2000 nM	20 nM	–
Cc1ccc(F)c2cc(C(=O)N[C@@H]3CCC[C@@H](N4CCC5(CC4)CNC(=O)N5)C3)[nH]c12 [compound 941]	> 2000 nM	1300 nM	–
Cc1ccc(F)c2cc(C(=O)NC3CCCC(N4CCC(=O)N(C)CC4)C3)[nH]c12 (stereo not drawn) [compound 944]	–	30 nM	100 nM
Cc1ccc(F)c2cc(C(=O)N[C@@H]3CCC[C@@H](N4CCC(=O)N(C)CC4)C3)[nH]c12 [compound 945]	–	100 nM	> 2000 nM
Cc1ccc(F)c2cc(C(=O)NC3CCCC(N4CCC(N(C)C(=O)C5COC5)C4)C3)[nH]c12 (stereo not drawn) [compound 946]	–	20 nM	100 nM
Cc1ccc(F)c2cc(C(=O)NC3CCCC(N4CCC(N(C)C(=O)C5COC5)C4)C3)[nH]c12 (stereo not drawn) [compound 947]	–	5500 nM	> 2000 nM
CCNC(=O)N1CCN(C2CCCC(NC(=O)c3cc4c(F)ccc(C)c4[nH]3)C2)CC1 (stereo not drawn) [compound 948]	–	10 nM	100 nM
CCNC(=O)N1CCN(C2CCCC(NC(=O)c3cc4c(F)ccc(C)c4[nH]3)C2)CC1 (stereo not drawn) [compound 949]	–	700 nM	> 2000 nM

SMILES	IC50 ([1]; Homo sapiens)	IC50 [2]	IC50 [1]
CC(=O)N1CCC12CN(C1CCCC(NC(=O)c3cc4c(F)ccc(C)c4[nH]3)C1)C2 (stereo not drawn) [compound 950]	–	400 nM	> 2000 nM
CC(=O)N1CCC12CN(C1CCCC(NC(=O)c3cc4c(F)ccc(C)c4[nH]3)C1)C2 (stereo not drawn) [compound 951]	–	7000 nM	> 2000 nM
CC(=O)N1CC2CCC(C1)N2C1CCCC(NC(=O)c2cc3c(F)ccc(C)c3[nH]2)C1 (stereo not drawn) [compound 952]	–	40 nM	400 nM
CC(=O)N1CC2CCC(C1)N2[C@@H]1CCC[C@@H](NC(=O)c2cc3c(F)ccc(C)c3[nH]2)C1 [compound 953]	> 2000 nM	3000 nM	–
Cc1ccc(F)c2cc(C(=O)NC3CCCC(c4nnc(CN(C)C)o4)C3)[nH]c12 (stereo not drawn) [compound 955]	–	200 nM	800 nM
Cc1ccc(F)c2cc(C(=O)NC3CCCC(N4CCNCC4)C3)[nH]c12 (stereo not drawn) [compound 956]	–	100 nM	700 nM
Cc1ccc(F)c2cc(C(=O)NC3CCCC(N4CCC(N5CCOC5=O)C4)C3)[nH]c12 (stereo not drawn) [compound 958]	–	40 nM	200 nM
Cc1ccc(F)c2cc(C(=O)NC3CCCC(N4CCC(N5CCOC5=O)C4)C3)[nH]c12 (stereo not drawn) [compound 959]	–	2300 nM	> 2000 nM
CC(=O)N(C)C1CN(C2CCCC(NC(=O)c3cc4c(F)ccc(C)c4[nH]3)C2)C1 (stereo not drawn) [compound 960]	–	20 nM	> 2000 nM
CC(=O)N1CC2CCC1CN2C1CCCC(NC(=O)c2cc3c(F)ccc(C)c3[nH]2)C1 (stereo not drawn) [compound 961]	–	30 nM	400 nM
CC(=O)N1CC2CCC1CN2C1CCCC(NC(=O)c2cc3c(F)ccc(C)c3[nH]2)C1 (stereo not drawn) [compound 962]	–	800 nM	> 2000 nM
Cc1ccc(F)c2cc(C(=O)NC3CCCC(N4CCC5(CC4)COC(=O)N5)C3)[nH]c12 (stereo not drawn) [compound 963]	–	20 nM	600 nM
Cc1ccc(F)c2cc(C(=O)NC3CCCC(N4CCC5(CC4)COC(=O)N5)C3)[nH]c12 (stereo not drawn) [compound 964]	–	500 nM	> 2000 nM
Cc1ccc(F)c2cc(C(=O)NC3CCCC(N4CCC5(CCC(=O)N5CC(F)(F)F)CC4)C3)[nH]c12 (stereo not drawn) [compound 965]	–	20 nM	200 nM
Cc1ccc(F)c2cc(C(=O)NC3CCCC(N4CCC5(CCC(=O)N5CC(F)(F)F)CC4)C3)[nH]c12 (stereo not drawn) [compound 966]	–	600 nM	> 2000 nM
CC(=O)N1CCN(C2CCCC(NC(=O)c3cc4c(F)ccc(C)c4[nH]3)C2)CC1C (stereo not drawn) [compound 967]	–	20 nM	100 nM
CC(=O)N1CCN(C2CCCC(NC(=O)c3cc4c(F)ccc(C)c4[nH]3)C2)CC1C (stereo not drawn) [compound 968]	–	1900 nM	> 2000 nM
Cc1ccc(F)c2cc(C(=O)NC3CCCC(N4CCC(N(C)C(=O)C(C)C)C4)C3)[nH]c12 (stereo not drawn) [compound 969]	–	4 nM	100 nM
Cc1ccc(F)c2cc(C(=O)NC3CCCC(N4CCC(N(C)C(=O)C(C)C)C4)C3)[nH]c12 (stereo not drawn) [compound 970]	–	5000 nM	> 2000 nM
